The term solubility denotes the dissolved amount per volume that the medium holds. The term Ki denotes a measure of affinity in units of concentration, obtained from inhibition or displacement. A lower Ki goes with a stronger hold on the target. A word on the half-life: it is how long it takes for the measured level to halve.

Consider three compounds from publication PMC5012889, “Cardiac action of the first G protein biased small molecule apelin agonist” (Biochemical Pharmacology, 2016).

SMILES strings stand for the structures. “Also recorded” adds a separate entry of the source. Counter-ions that a name gives are not always drawn. Like-named read-outs stand apart in the source and are kept apart here.

Data set [1] can be described thus: Thermodynamic solubility (Cyprotex). It is filed as physicochemical. The note with it: pH 7.4, saline or isotonic, thermodynamic from solid, pH7.4, potassium salt. On the procedure: (§1) CMF-019 ((S)-3-[1-(1-Ethyl-propyl)-2-thiophen-2-ylmethyl-1H-benzoimidazole-5-carbonyl]-amino-5-methyl-hexanoic acid) has previously been prepared (compound number 107 from patent US20140094450, 2014) via a minor modification of the literature procedure (Fig. 2). […] Thermodynamic solubility (potassium salt) and an in vitro murine microsomal stability of CMF-019 were performed at Cyprotex (Macclesfield, UK).

Data set [2] can be described thus: Analysis of rat plasma samples by LC-MS/MS. It counts as in vivo. Conditions: approx. 10 min after last of three cumulative i.v. doses, heparinised samples, n = 6. On the procedure:
Analysis of plasma samples was performed by Peakdale Molecular (Chapel-en-la-Frith, UK). End-point blood samples were taken from rats (n = 6) following completion of three cumulative doses of CMF-019 (as described before), approximately 10 min after the last intravenous administration. The blood was collected in heparin-coated vials and spun at low speed (2000 g, 5 min), the plasma supernatant was removed and frozen. Quantitative analysis was performed using LC-MS/MS with metaprolol as an internal standard and CMF-019 to quantify CMF-019 in the samples.

Data set [3] has as its target T1, apelin receptor (Rattus norvegicus, UniProt Q9JHG3).
T1 construct: from tissue; host or cells: rat whole heart homogenate
T1 sequence (Q9JHG3 1-377): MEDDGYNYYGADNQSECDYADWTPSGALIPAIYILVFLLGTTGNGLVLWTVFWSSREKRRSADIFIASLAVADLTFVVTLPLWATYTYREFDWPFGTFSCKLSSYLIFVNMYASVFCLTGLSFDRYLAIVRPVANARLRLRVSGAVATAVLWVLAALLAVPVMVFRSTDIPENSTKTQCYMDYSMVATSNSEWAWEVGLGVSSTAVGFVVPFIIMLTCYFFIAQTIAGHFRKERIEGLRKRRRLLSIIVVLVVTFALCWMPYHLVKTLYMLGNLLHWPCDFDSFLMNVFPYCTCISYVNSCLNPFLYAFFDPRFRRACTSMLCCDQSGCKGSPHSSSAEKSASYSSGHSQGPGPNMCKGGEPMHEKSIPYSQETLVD
Put plainly: Competition radioligand binding, rat whole heart homogenate.
Procedure: (§2) Initial binding assays were performed by Cerep (Celle L’Evescault, France) on Chinese Hamster Ovary (CHO-K1) cells expressing the human apelin receptor. Further experiments were performed on human homogenised left ventricle (HLV, 1.5 mg/ml) and rat and mouse whole heart homogenates to determine any species variability prior to in vivo experiments. […] Experiments were performed in triplicate and data analysed using GraphPad Prism 6 (GraphPad Software, Inc. La Jolla, USA). Binding affinities were calculated by the Cheng-Prusoff methodology using measured IC50 values.

Data set [4] deals with T2, apelin receptor (Mus musculus, UniProt Q9WV08).
T2 construct: from tissue; host or cells: mouse whole heart homogenate
T2 sequence (Q9WV08 1-377): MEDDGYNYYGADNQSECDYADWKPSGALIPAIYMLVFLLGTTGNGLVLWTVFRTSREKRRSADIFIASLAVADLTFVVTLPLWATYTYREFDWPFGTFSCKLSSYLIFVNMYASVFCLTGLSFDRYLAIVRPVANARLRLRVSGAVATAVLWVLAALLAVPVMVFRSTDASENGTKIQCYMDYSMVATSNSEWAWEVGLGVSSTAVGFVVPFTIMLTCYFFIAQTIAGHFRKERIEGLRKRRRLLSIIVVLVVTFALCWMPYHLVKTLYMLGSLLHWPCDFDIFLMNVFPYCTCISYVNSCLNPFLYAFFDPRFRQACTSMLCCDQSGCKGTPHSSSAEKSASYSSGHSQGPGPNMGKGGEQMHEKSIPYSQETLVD
Briefly: Competition radioligand binding, mouse whole heart homogenate.
Procedure: as §2

Data set [5] addresses T3, apelin receptor (Homo sapiens, UniProt P35414).
T3 sequence (P35414 1-380): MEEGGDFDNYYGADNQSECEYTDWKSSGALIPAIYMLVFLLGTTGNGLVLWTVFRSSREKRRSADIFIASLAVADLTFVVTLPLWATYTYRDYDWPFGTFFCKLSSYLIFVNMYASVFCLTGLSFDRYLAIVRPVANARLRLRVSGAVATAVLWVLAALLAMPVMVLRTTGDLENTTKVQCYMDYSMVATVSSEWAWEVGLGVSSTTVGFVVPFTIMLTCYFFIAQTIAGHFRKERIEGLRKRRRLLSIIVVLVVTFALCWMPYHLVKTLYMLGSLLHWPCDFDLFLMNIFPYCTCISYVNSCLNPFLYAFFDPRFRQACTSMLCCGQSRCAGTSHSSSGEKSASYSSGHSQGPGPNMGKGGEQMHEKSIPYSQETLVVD
The note with it: compared to [Pyr1]apelin-13. An excerpt: Statistical significance was taken as 5%.

In data set [6] the test system is anaesthetised male Sprague–Dawley rats. Put plainly: Rat heart catheterisation (left ventricle pressure-volume catheter), intravenous injection. It is filed as in vivo. The note with it: for increase in dP/dtMAX (cardiac contractility): cumulative bolus. From the text:
Male Sprague-Dawley rats (273 ± 6 g; […] Temperature was monitored throughout the surgical procedure using a rectal probe. Prior to the start of surgery, it was ensured that pain reflexes had ceased by use of a hind-paw pinch test. The surgery was completed as previously described. In brief, the right external jugular vein was cannulated, flushed with heparin solution (2%, 0.9% saline, pH5, Macopharma) and the right common carotid artery located. The catheter (Millar Inc., SPR-869) was calibrated using the MPVS Ultra system (ADIstruments) before being inserted into the carotid and advanced to the left ventricle. Once a stable pressure-volume loop could be observed, the catheter was left in place for ten minutes. […] The effects on pressure and volume were measured and the heart rate monitored to determine and maintain a suitable depth of anaesthesia. […] Data were acquired using the MPVS Ultra system (ADIstruments) and analysed using LabChart 8 (ADIstruments). Values for the maximal change in left ventricular systolic pressure (LVSP), stroke volume, cardiac output, contractility ([…] lusitropy ([…]) from baseline were calculated from the raw data and compared. Following completion of the measurements the animal was euthanised by exsanguination under high flow isoflurane.

Data set [7] is described as follows: In vitro murine microsomal stability (Cyprotex). It is filed as in vitro ADME. Conditions: mouse, murine microsomes. As for the experimental part: as §1
In data set [8] the target is T3, apelin receptor. Briefly: Bias calculations between pathways (ΔΔLogR, bias factors). The note with it: compared to [Pyr1]apelin-13.
Procedure: β-Arrestin recruitment, β-arrestin mediated internalisation and cAMP assays were performed according to the manufacturer’s instructions (DiscoverX®, Fremont, CA) and as described previously [4].
All data are expressed as mean ± SEM values. Binding and cell-based experiments were performed in triplicate. For cell based assays, n-values are given as the number of replicates/number of experiments.
A further data set has as its target T4, native apelin receptor (Homo sapiens, UniProt P35414).
T4 sequence (P35414 1-380): T3 sequence (P35414 1-380)
Put plainly: Competition radioligand binding, human left ventricle homogenate.

For data set [9], the target named is T3, apelin receptor.
Procedure: as §2
Details of data set [10]: method as in earlier work. The note with it: saline at room temperature; cited from earlier work.
Where [11] appears, read: 500 nmol i.v., anaesthetised rats.
Setting [12] is: 5000 nmol i.v., anaesthetised rats.

Procedure for native apelin receptor: as §2

With `CCC(CC)n1c(Cc2cccs2)nc2cc(C(=O)N[C@H](CC(=O)O)CC(C)C)ccc21` [CMF-019 (potassium salt)], the solubility in data set [1] stood at 2090 µg/mL. The compound also had a mean plasma concentration in data set [2] of 25.4 ± 2.5 µM.

Take `CCC(CC)n1c(Cc2cccs2)nc2cc(C(=O)N[C@H](CC(=O)O)CC(C)C)ccc21` [CMF-019, (S)-3-[1-(1-Ethyl-propyl)-2-thiophen-2-ylmethyl-1H-benzoimidazole-5-carbonyl]-amino-5-methyl-hexanoic acid]: the inhibition constant Ki at apelin receptor [3] is 3.24 nM; on apelin receptor [4] it was 1.95 nM; on native apelin receptor it was 2.63 nM; at apelin receptor [9], 24.5 nM. The “relative effectiveness (RE)” value is 4.19 on apelin receptor [5] (cAMP), 7.19 × 10^−4 on apelin receptor [5] (internalisation) and 0.01 at apelin receptor [5] (β-arrestin). In addition, the ΔLogR on apelin receptor [5] (cAMP) is on record as 0.62 ± 0.16; at apelin receptor [5] (internalisation), −3.14 ± 0.19; at apelin receptor [5] (β-arrestin), −1.98 ± 0.18. In addition, the “increase in cardiac output” value in [6] (setting [11]) is recorded as 1210 ± 170 RVU/min. The “increase in stroke volume” value in data set [6] (setting [11]) amounted to 2.62 ± 0.31 RVU. In addition, the “increase in dP/dtMAX (cardiac contractility)” value in data set [6] (setting [11]) is reported as 606 ± 112 mmHg/s; in data set [6] (setting [12]) it was 833 ± 152 mmHg/s. The “increase in LVSP” value in data set [6] (setting [12]) worked out at 6.22 ± 1.98 mmHg. Also, the adverse effects entry in data set [6] (any of the concentrations administered (50–5000 nmol i.v.)) is “No adverse effects were observed”. In addition, in [6] (i.v., anaesthetised rats), the “effect on dP/dtMIN (lusitropy)” value was “Neither [Pyr^1]apelin-13 nor CMF-019 altered the dP/dtMIN; also recorded: did not alter”. Also, in data set [6] (i.v., anaesthetised rats), the “effect on heart rate” value is given as “without a change in heart rate”. In addition, the half-life in [7] came out at 38 min. This compound yielded a mean plasma concentration in data set [2] of about 25 µM. The results for the “bias factor (BF)” value at apelin receptor [8] (cAMP (Gαi) over internalisation) and at apelin receptor [8] (cAMP (Gαi) over β-arrestin) were 5828 and 398, respectively. Further, the values for the ΔΔLogR on apelin receptor [8] (cAMP over internalisation), on apelin receptor [8] (cAMP over β-arrestin) and on apelin receptor [8] (β-arrestin over internalisation) were 3.77 ± 0.25, 2.60 ± 0.24 and 1.17 ± 0.26, respectively.

On to `CC1=CC(=O)C(C2CCCCC2)=C/C1=N\OS(=O)(=O)c1ccccc1` [ML233], for which the solubility in saline result in data set [10] is given as “low solubility”.
